Read-outs that look alike come from different tables or passages of the source.
Legend:
Format in all cases: cell-based
[1] = system: MRSA2 (methicillin-resistant Staphylococcus aureus clinical isolate); assay: Broth microdilution MIC (NCCLS 2000), strain MRSA2; details: 18 h
Description: (§1) Antimicrobial susceptibility testing was performed by broth assay followed standard laboratory procedures (the National Committee for Clinical Laboratory Standards (NCCLS) protocol 2000). The MIC in this assay was defined as the lowest concentration of the antibiotic under test that inhibited the visible growth of the microorganism under study.
(§2) There were eight strains of Staphylococcus aureus tested. All were from clinical isolates as they represent strains actually present in the community and so of clinical relevance. Three strains were sensitive to methicillin (MSSA), and five strains were resistant to methicillin (MRSA).
(§3) The MIC for each of the eight strains was determined for penicillin G and for vancomycin using dilutions made from the stock preparations purchased (both from Sigma). […]
(§4) The antimicrobial susceptibility test was performed in a 96-well microtitre plate and following standard National Committee for Clinical Laboratory Standards (NCCLS) protocol (NCCLS, 2000). […] Minimal inhibitory concentration (MIC) was determined by the microdilution method in Mueller-Hinton broth (Oxoid, Hampshire, UK), according to the standards of the NCCLS (2000). […]
(§5) Each bacterial strain was plated overnight on Mueller-Hinton agar and then transferred to a broth 3 hours before the assay was performed. […] Microplates were examined 18 hours later and determined for MIC. […]

[2] = system: MRSA1 (methicillin-resistant Staphylococcus aureus clinical isolate); assay: Broth microdilution MIC (NCCLS 2000), strain MRSA1; details: 18 h
Description: as §1, §2, §3, §4, §5

[3] = system: eight strains of Staphylococcus aureus (MSSA and MRSA clinical isolates); assay: Broth microdilution MIC (NCCLS 2000), summary over all tested strains; details: read-out: MIC concentrations of the different strains
Description: as §1, §2, §3, §4, §5

[4] = system: MRSA4 (methicillin-resistant Staphylococcus aureus clinical isolate); assay: Broth microdilution MIC (NCCLS 2000), strain MRSA4; details: 18 h
Description: as §1, §2, §3, §4, §5

[5] = system: MSSA3 (methicillin-sensitive Staphylococcus aureus clinical isolate); assay: Broth microdilution MIC (NCCLS 2000), strain MSSA3; details: 18 h
Description: as §1, §2, §3, §4, §5

[6] = system: MRSA3 (methicillin-resistant Staphylococcus aureus clinical isolate); assay: Broth microdilution MIC (NCCLS 2000), strain MRSA3; details: 18 h
Description: as §1, §2, §3, §4, §5

[7] = system: MRSA5 (methicillin-resistant Staphylococcus aureus clinical isolate); assay: Broth microdilution MIC (NCCLS 2000), strain MRSA5; details: 18 h
Description: as §1, §2, §3, §4, §5

[8] = system: MSSA1 (methicillin-sensitive Staphylococcus aureus clinical isolate); assay: Broth microdilution MIC (NCCLS 2000), strain MSSA1; details: 18 h
Description: as §1, §2, §3, §4, §5

[9] = system: MSSA2 (methicillin-sensitive Staphylococcus aureus clinical isolate); assay: Broth microdilution MIC (NCCLS 2000), strain MSSA2; details: 18 h
Description: as §1, §2, §3, §4, §5

MIC ([1]; strain MRSA2, extract where present 1% w/v final, 37° C., Mueller-Hinton broth, read-out: MIC) | MIC ([2]; strain MRSA1, extract where present 1% w/v final, 37° C., Mueller-Hinton broth, read-out: MIC) | MIC ([3]; antibiotic alone, range over the eight MSSA and MRSA strains) | MIC ([4]; strain MRSA4, extract where present 1% w/v final, 37° C., Mueller-Hinton broth, read-out: MIC) | MIC ([5]; strain MSSA3, extract where present 1% w/v final, 37° C., Mueller-Hinton broth, read-out: MIC) | MIC ([6]; strain MRSA3, extract where present 1% w/v final, 37° C., Mueller-Hinton broth, read-out: MIC) | MIC ([7]; strain MRSA5, extract where present 1% w/v final, 37° C., Mueller-Hinton broth, read-out: MIC) | MIC ([8]; strain MSSA1, extract where present 1% w/v final, 37° C., Mueller-Hinton broth, read-out: MIC) | MIC ([9]; strain MSSA2, extract where present 1% w/v final, 37° C., Mueller-Hinton broth, read-out: MIC) | Structure (SMILES) | MIC [1] | MIC [2] | MIC [3] | MIC [4] | MIC [5] | MIC [6] | MIC [7] | MIC [8] | MIC [9]
256 µg/mL | 512 µg/mL | 8 to 1020 µg/mL | 256 µg/mL | 8 µg/mL | 1020 µg/mL | 512 µg/mL | 64 µg/mL | 32 µg/mL | CC1(C)S[C@@H]2[C@H](NC(=O)Cc3ccccc3)C(=O)N2[C@H]1C(=O)O [Pen, penicillin G] | – | – | – | – | – | – | – | – | –
– | – | – | – | – | – | – | – | – | CN[C@H](CC(C)C)C(=O)N[C@H]1C(=O)N[C@@H](CC(N)=O)C(=O)N[C@H]2C(=O)N[C@H]3C(=O)N[C@H](C(=O)N[C@H](C(=O)O)c4cc(O)cc(O)c4-c4cc3ccc4O)[C@H](O)c3ccc(c(Cl)c3)Oc3cc2cc(c3O[C@@H]2O[C@H](CO)[C@@H](O)[C@H](O)[C@H]2O[C@H]2C[C@](C)(N)[C@H](O)[C@H](C)O2)Oc2ccc(cc2Cl)[C@H]1O [Van, vancomycin] | 1 µg/mL | 0.5 µg/mL | 0.5 to 1 µg/mL | 0.5 µg/mL | 0.5 µg/mL | 1 µg/mL | 0.5 µg/mL | 0.5 µg/mL | 0.5 µg/mL

Reference: patent publication US20070059321A1, “Methods of reducing minimal inhibitory concentration of antibiotics and compositions resulting therefrom” (The Hong Kong Polytechnic University, priority 2005, published 2007)
